According to ChEMBL document CHEMBL4311999, “3-Hydrazinoisatin-based benzenesulfonamides as novel carbonic anhydrase inhibitors endowed with anticancer activity: Synthesis, in vitro biological evaluation and in silico insights” (Eur J Med Chem, 2019):

Tests used:
Carbonic anhydrase 1 = Carbonic anhydrase 1 (Homo sapiens, UniProt P00915); test: Inhibition of recombinant human carbonic anhydrase 1 preincubated for 15 mins by phenol red dye based stopped flow CO2 hydration assay
Carbonic anhydrase 2 = Carbonic anhydrase 2 (Homo sapiens, UniProt P00918); test: Inhibition of recombinant human carbonic anhydrase 2 preincubated for 15 mins by phenol red dye based stopped flow CO2 hydration assay
Carbonic anhydrase 9 = Carbonic anhydrase 9 (Homo sapiens, UniProt Q16790); test: Inhibition of recombinant human carbonic anhydrase 9 preincubated for 15 mins by phenol red dye based stopped flow CO2 hydration assay
Carbonic anhydrase 12 = Carbonic anhydrase 12 (Homo sapiens, UniProt O43570); test: Inhibition of recombinant human carbonic anhydrase 12 preincubated for 15 mins by phenol red dye based stopped flow CO2 hydration assay
Chain of Carbonic anhydrase 12 (O43570 whole entry): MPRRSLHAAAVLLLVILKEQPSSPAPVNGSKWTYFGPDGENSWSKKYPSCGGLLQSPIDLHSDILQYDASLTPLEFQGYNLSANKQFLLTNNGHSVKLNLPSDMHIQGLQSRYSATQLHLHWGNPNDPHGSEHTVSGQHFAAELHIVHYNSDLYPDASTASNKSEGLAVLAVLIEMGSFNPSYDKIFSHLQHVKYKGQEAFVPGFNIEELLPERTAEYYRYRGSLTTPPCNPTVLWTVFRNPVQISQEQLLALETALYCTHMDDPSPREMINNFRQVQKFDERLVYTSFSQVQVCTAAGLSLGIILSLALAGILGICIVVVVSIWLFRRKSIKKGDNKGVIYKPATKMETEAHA

K562 = test: Growth inhibition of human K562 cells at 10 uM incubated for 48 hrs by sulforhodamine B assay relative to control; format: functional; settings: K562, 48 h, read-out: GI
MOLT-4 = test: Growth inhibition of human MOLT4 cells at 10 uM incubated for 48 hrs by sulforhodamine B assay relative to control; format: functional; settings: MOLT-4, 48 h, read-out: GI
SR = test: Growth inhibition of human SR cells at 10 uM incubated for 48 hrs by sulforhodamine B assay relative to control; format: functional; settings: read-out: GI
A549 = test: Growth inhibition of human A549/ATCC cells at 10 uM incubated for 48 hrs by sulforhodamine B assay relative to control; format: functional; settings: A549, 48 h, read-out: GI
NCI-H226 = test: Growth inhibition of human NCI-H226 cells at 10 uM incubated for 48 hrs by sulforhodamine B assay relative to control; format: functional; settings: NCI-H226, 48 h, read-out: GI
HOP-62 = test: Growth inhibition of human HOP62 cells at 10 uM incubated for 48 hrs by sulforhodamine B assay relative to control; format: functional; settings: HOP-62, 48 h, read-out: GI
NCI-H322M = test: Growth inhibition of human NCI-H322M cells at 10 uM incubated for 48 hrs by sulforhodamine B assay relative to control; format: functional; settings: read-out: GI
NCI-H460 = test: Growth inhibition of human NCI-H460 cells at 10 uM incubated for 48 hrs by sulforhodamine B assay relative to control; format: functional; settings: NCI-H460, 48 h, read-out: GI
HCT-116 = test: Growth inhibition of human HCT116 cells at 10 uM incubated for 48 hrs by sulforhodamine B assay relative to control; format: functional; settings: HCT-116, 48 h, read-out: GI
HCT-15 = test: Growth inhibition of human HCT15 cells at 10 uM incubated for 48 hrs by sulforhodamine B assay relative to control; format: functional; settings: HCT-15, 48 h, read-out: GI
SNB-75 = test: Growth inhibition of human SNB75 cells at 10 uM incubated for 48 hrs by sulforhodamine B assay relative to control; format: functional; settings: SNB-75, 48 h, read-out: GI
SW-620 = test: Growth inhibition of human SW620 cells at 10 uM incubated for 48 hrs by sulforhodamine B assay relative to control; format: functional; settings: SW-620, 48 h, read-out: GI
U-251 = test: Growth inhibition of human U251 cells at 10 uM incubated for 48 hrs by sulforhodamine B assay relative to control; format: functional; settings: U-251, 48 h, read-out: GI
Malme-3M = test: Growth inhibition of human MALME-3M cells at 10 uM incubated for 48 hrs by sulforhodamine B assay relative to control; format: functional; settings: read-out: GI
M14 = test: Growth inhibition of human M14 cells at 10 uM incubated for 48 hrs by sulforhodamine B assay relative to control; format: functional; settings: M14, 48 h, read-out: GI
MDA-MB-231 = test: Growth inhibition of human MDA-MB-231 cells at 10 uM incubated for 48 hrs by sulforhodamine B assay relative to control; format: functional; settings: MDA-MB-231, 48 h, read-out: GI
MCF7 = test: Growth inhibition of human MCF7 cells at 10 uM incubated for 48 hrs by sulforhodamine B assay relative to control; format: functional; settings: MCF7, 48 h, read-out: GI
UO-31 = test: Growth inhibition of human UO31 cells at 10 uM incubated for 48 hrs by sulforhodamine B assay relative to control; format: functional; settings: UO-31, 48 h, read-out: GI
PC-3 = test: Growth inhibition of human PC3 cells at 10 uM incubated for 48 hrs by sulforhodamine B assay relative to control; format: functional; settings: PC-3, 48 h, read-out: GI
SN12C = test: Growth inhibition of human SN12C cells at 10 uM incubated for 48 hrs by sulforhodamine B assay relative to control; format: functional; settings: read-out: GI
RXF 393 = test: Growth inhibition of human RXF393 cells at 10 uM incubated for 48 hrs by sulforhodamine B assay relative to control; format: functional; settings: RXF 393, 48 h, read-out: GI
ACHN = test: Growth inhibition of human ACHN cells at 10 uM incubated for 48 hrs by sulforhodamine B assay relative to control; format: functional; settings: read-out: GI
SK-OV-3 = test: Growth inhibition of human SKOV3 cells at 10 uM incubated for 48 hrs by sulforhodamine B assay relative to control; format: functional; settings: SK-OV-3, 48 h, read-out: GI
OVCAR-8 = test: Growth inhibition of human OVCAR8 cells at 10 uM incubated for 48 hrs by sulforhodamine B assay relative to control; format: functional; settings: OVCAR-8, 48 h, read-out: GI
OVCAR-5 = test: Growth inhibition of human OVCAR5 cells at 10 uM incubated for 48 hrs by sulforhodamine B assay relative to control; format: functional; settings: OVCAR-5, 48 h, read-out: GI
OVCAR-3 = test: Growth inhibition of human OVCAR3 cells at 10 uM incubated for 48 hrs by sulforhodamine B assay relative to control; format: functional; settings: OVCAR-3, 48 h, read-out: GI
OVCAR-4 = test: Growth inhibition of human OVCAR4 cells at 10 uM incubated for 48 hrs by sulforhodamine B assay relative to control; format: functional; settings: OVCAR-4, 48 h, read-out: GI
IGROV-1 = test: Growth inhibition of human IGROV1 cells at 10 uM incubated for 48 hrs by sulforhodamine B assay relative to control; format: functional; settings: IGROV-1, 48 h, read-out: GI
SK-MEL-5 = test: Growth inhibition of human SK-MEL-5 cells at 10 uM incubated for 48 hrs by sulforhodamine B assay relative to control; format: functional; settings: SK-MEL-5, 48 h, read-out: GI
Hs-578T = test: Growth inhibition of human Hs 578T cells at 10 uM incubated for 48 hrs by sulforhodamine B assay relative to control; format: functional; settings: read-out: GI
T47D = test: Growth inhibition of human T47D cells at 10 uM incubated for 48 hrs by sulforhodamine B assay relative to control; format: functional; settings: read-out: GI
CDK9/cyclin T1 = CDK9/cyclin T1 (Homo sapiens, UniProt P50750); test: Inhibition of human full length N-terminal GST-HIS6 fused CDK9 (M1 to F372 residues)/N-terminal HIS6-fused Cyclin-T1 (M1 to K726 residues) co-expressed in Sf9 cells using (YSPTSPS)2KK as substrate in presence of [gamma33P]ATP
Chain of CDK9/cyclin T1 (O60563 whole entry, the tested form may be a part): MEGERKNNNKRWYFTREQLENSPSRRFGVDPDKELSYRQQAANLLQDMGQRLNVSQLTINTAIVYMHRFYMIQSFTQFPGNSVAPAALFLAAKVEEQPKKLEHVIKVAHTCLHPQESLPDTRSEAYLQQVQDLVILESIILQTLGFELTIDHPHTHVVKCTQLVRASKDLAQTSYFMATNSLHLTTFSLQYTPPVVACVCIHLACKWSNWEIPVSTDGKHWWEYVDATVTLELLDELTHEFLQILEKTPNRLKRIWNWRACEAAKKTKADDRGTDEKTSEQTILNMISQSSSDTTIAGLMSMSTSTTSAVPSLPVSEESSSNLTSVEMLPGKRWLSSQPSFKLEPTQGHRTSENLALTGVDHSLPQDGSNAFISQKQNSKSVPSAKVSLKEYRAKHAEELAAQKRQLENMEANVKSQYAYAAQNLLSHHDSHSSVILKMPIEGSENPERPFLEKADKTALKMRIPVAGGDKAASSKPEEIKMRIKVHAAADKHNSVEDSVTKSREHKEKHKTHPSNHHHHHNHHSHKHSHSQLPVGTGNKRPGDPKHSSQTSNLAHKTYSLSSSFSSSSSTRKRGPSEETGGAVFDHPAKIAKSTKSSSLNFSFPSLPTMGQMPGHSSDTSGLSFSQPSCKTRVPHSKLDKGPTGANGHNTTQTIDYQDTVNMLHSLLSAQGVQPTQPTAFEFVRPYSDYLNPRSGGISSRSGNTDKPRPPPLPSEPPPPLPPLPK
Chain of CDK9/cyclin T1 (P50750 whole entry, the tested form may be a part): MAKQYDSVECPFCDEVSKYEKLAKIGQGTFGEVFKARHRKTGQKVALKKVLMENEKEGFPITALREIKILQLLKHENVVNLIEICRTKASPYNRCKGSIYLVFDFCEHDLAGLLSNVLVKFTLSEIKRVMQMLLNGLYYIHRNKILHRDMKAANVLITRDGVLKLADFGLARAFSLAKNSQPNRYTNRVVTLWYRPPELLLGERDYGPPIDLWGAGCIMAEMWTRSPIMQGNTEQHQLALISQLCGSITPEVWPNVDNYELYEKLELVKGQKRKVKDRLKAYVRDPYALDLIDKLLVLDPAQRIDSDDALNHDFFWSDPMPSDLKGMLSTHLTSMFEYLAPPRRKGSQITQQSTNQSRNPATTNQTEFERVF

Chain of Carbonic anhydrase 1 (P00915 whole entry): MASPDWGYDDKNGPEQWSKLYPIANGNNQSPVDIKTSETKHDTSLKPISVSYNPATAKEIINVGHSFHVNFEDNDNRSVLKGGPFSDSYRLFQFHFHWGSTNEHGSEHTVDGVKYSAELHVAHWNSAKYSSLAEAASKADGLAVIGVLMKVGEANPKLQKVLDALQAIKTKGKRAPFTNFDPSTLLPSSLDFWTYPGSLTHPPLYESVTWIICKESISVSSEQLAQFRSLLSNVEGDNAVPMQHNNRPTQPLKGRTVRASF

SMILES: NS(=O)(=O)c1ccc(N/N=C2\C(=O)N(Cc3ccccc3)c3ccc(Cl)cc32)cc1
- Ki (Carbonic anhydrase 1): 4.83 µM
- Ki (Carbonic anhydrase 2): 52.7 nM
- Ki (Carbonic anhydrase 9): 19.6 nM
- Ki (Carbonic anhydrase 12): 33.7 nM
- inhibition of growth at 10 µM (K562): 18%
- inhibition of growth at 10 µM (MOLT-4): 28%
- inhibition of growth at 10 µM (SR): 40%
- inhibition of growth at 10 µM (A549): 17%
- inhibition of growth at 10 µM (NCI-H226): 66%
- inhibition of growth at 10 µM (HOP-62): 36%
- inhibition of growth at 10 µM (NCI-H322M): 16%
- inhibition of growth at 10 µM (NCI-H460): 35%
- inhibition of growth at 10 µM (HCT-116): 31%
- inhibition of growth at 10 µM (HCT-15): 11%
- inhibition of growth at 10 µM (SNB-75): 22%
- inhibition of growth at 10 µM (SW-620): 20%
- inhibition of growth at 10 µM (U-251): 18%
- inhibition of growth at 10 µM (Malme-3M): 30%
- inhibition of growth at 10 µM (M14): 12%
- inhibition of growth at 10 µM (MDA-MB-231): 24%
- inhibition of growth at 10 µM (MCF7): 25%
- inhibition of growth at 10 µM (UO-31): 19%
- inhibition of growth at 10 µM (PC-3): 16%
- inhibition of growth at 10 µM (SN12C): 13%
- inhibition of growth at 10 µM (RXF 393): 55%
- inhibition of growth at 10 µM (ACHN): 35%
- inhibition of growth at 10 µM (SK-OV-3): 26%
- inhibition of growth at 10 µM (OVCAR-8): 35%
- inhibition of growth at 10 µM (OVCAR-5): 13%
- inhibition of growth at 10 µM (OVCAR-3): 11%
- inhibition of growth at 10 µM (OVCAR-4): 71%
- inhibition of growth at 10 µM (IGROV-1): 16%
- inhibition of growth at 10 µM (SK-MEL-5): 20%
- inhibition of growth at 10 µM (Hs-578T): 55%
- inhibition of growth at 10 µM (T47D): 21%
- IC50 (CDK9/cyclin T1): > 10 µM

SMILES: CCOC(=O)CN1C(=O)/C(=N\Nc2ccc(S(N)(=O)=O)cc2)c2cc(Br)ccc21
- Ki (Carbonic anhydrase 1): > 10 µM
- Ki (Carbonic anhydrase 2): 630 nM
- Ki (Carbonic anhydrase 9): 65.4 nM
- Ki (Carbonic anhydrase 12): 49.5 nM
- inhibition of growth at 10 µM (K562): 35%
- inhibition of growth at 10 µM (MOLT-4): 23%
- inhibition of growth at 10 µM (SR): 25%
- inhibition of growth at 10 µM (A549): 69%
- inhibition of growth at 10 µM (NCI-H226): 14%
- inhibition of growth at 10 µM (HOP-62): 35%
- inhibition of growth at 10 µM (NCI-H322M): 23%
- inhibition of growth at 10 µM (NCI-H460): 56%
- inhibition of growth at 10 µM (HCT-116): 86%
- inhibition of growth at 10 µM (HCT-15): 15%
- inhibition of growth at 10 µM (SNB-75): 22%
- inhibition of growth at 10 µM (SW-620): 37%
- inhibition of growth at 10 µM (U-251): 14%
- inhibition of growth at 10 µM (Malme-3M): 21%
- inhibition of growth at 10 µM (M14): 12%
- inhibition of growth at 10 µM (MDA-MB-231): 33%
- inhibition of growth at 10 µM (MCF7): 16%
- inhibition of growth at 10 µM (UO-31): 13%
- inhibition of growth at 10 µM (PC-3): 29%
- inhibition of growth at 10 µM (SN12C): 12%
- inhibition of growth at 10 µM (RXF 393): 57%
- inhibition of growth at 10 µM (ACHN): 15%
- inhibition of growth at 10 µM (SK-OV-3): 18%
- inhibition of growth at 10 µM (OVCAR-8): 44%
- inhibition of growth at 10 µM (OVCAR-5): 14%
- inhibition of growth at 10 µM (OVCAR-3): 15%
- inhibition of growth at 10 µM (OVCAR-4): 69%
- inhibition of growth at 10 µM (IGROV-1): 27%
- inhibition of growth at 10 µM (SK-MEL-5): 12%
- inhibition of growth at 10 µM (Hs-578T): 10%
- inhibition of growth at 10 µM (T47D): 22%
- IC50 (CDK9/cyclin T1): > 10 µM
